We go through 8 molecules from patent US20070197629A1, “Indole derivative and application thereof” (priority 2004, published 2007).

The structures appear in SMILES notation. Read-outs that look alike come from different tables or passages of the source.

For series [1], the system named is osteoclasts. Description: Assay of influences on osteoclasts: tartaric acid-resistant acid phosphatase (TRAP) activity in cultured goldfish scales. As to conditions: for TRAP activity, amount of paranitrophenol produced: scales cultured at 15° C. for 6 hours, control 3.43 ± 0.04. The class given is cell-based. The source says:
In accordance with the method described in N. Suzuki and A. Hattori, J. Pineal Res., 33, 253-258, 2002, influences of an indole derivative on bone cells were inspected.
A female goldfish (body weight: about 30 g) was put under anesthesia with MS222 (ethyl 3-aminobenzoate, methane sulfonic acid salt) (Aldrich), and a desired number of scales were peeled off. The scales were washed twice in Eagle's minimum essential medium (ICN Biomedicals Inc.) comprising 1% antibiotics (a mixture of penicillin and streptomycin). Medium of the same type was introduced into each well of a 24-well plate in amounts of 1 ml, several scales were introduced to each well (8 scales in general), and 10^−4, 10^−6, and 10^−8 M indole derivatives were applied to separate wells. Subsequently, the scales were cultured at 15° C. for 6 hours. Also, a group to which no indole derivative had been added was prepared (a control group), and influences thereof on osteoclasts and osteoblasts were compared. Two control groups, i.e., a group for inspecting osteoclasts and a group for inspecting osteoblasts, were provided. Specifically, a total of 8 wells were provided for the control and 10^−4, 10^−6, and 10^−8 M indole derivatives (2 wells for each thereof). Accordingly, 3 types of indole derivatives can be inspected with the use of a 24-well plate.
After the culture, medium was removed, 0.05 M cacodylate buffer (pH 7.4) containing 10% formalin was added, and the scales were immobilized. The scales were stored in 0.05 M cacodylate buffer at 4° C. until the measurement of enzyme activity was initiated.
2-Bromomelatonin (a compound represented by formula (I) wherein X represents a bromine atom; R^1 represents a hydrogen atom; R^2 represents methyl; R^3, R^5 and R^6 each represent a hydrogen atom; and R^4 represents methyl), which was subjected to the test, was a known compound, and it was synthesized by the method described in M. Somei, Y. Fukui, M. Hasegawa, N. Oshikiri, and T. Hayashi, Heterocycles, 53, 1725-1736, 2000. • (1) Assay of Influences Imposed on Osteoclasts, i.e., Assay of Tartaric Acid-Resistant Acid Phosphatase (TRAP) Activity
The immobilized scales were removed from the plate, and the weights thereof were measured. Thereafter, the scales were introduced into a 96-well microplate, 200 μl of 100 mM acetate buffer containing 20 mM tartaric acid and 10 mM paranitrophenol phosphate (substrate) was introduced to each well, reaction was allowed to proceed at 25° C. for 1 hour, and an aqueous solution of 2N sodium hydroxide (50 μl) was then added in order to terminate the reaction. The solution after the reaction (150 μl) was transferred to the other microplate, and the amount of paranitrophenol (pNP) generated by TRAP was measured using a spectrophotometer (405 nm). The osteoclast activity was indicated in terms of the amount of paranitrophenol phosphate decomposed and that of pNP produced within 1 hour per mg of the scales.

Series [2] deals with osteoblasts. Description: Assay of influences on osteoblasts: alkaline phosphatase (ALP) activity in cultured goldfish scales. Format: cell-based. As to conditions: for ALP activity, amount of paranitrophenol produced: scales cultured at 15° C. for 6 hours, control 6.00-6.17 (per table). The source says:
In accordance with the method described in N. Suzuki and A. Hattori, J. Pineal Res., 33, 253-258, 2002, influences of an indole derivative on bone cells were inspected. A female goldfish (body weight: about 30 g) was put under anesthesia with MS222 (ethyl 3-aminobenzoate, methane sulfonic acid salt) (Aldrich), and a desired number of scales were peeled off. The scales were washed twice in Eagle's minimum essential medium (ICN Biomedicals Inc.) comprising 1% antibiotics (a mixture of penicillin and streptomycin). Medium of the same type was introduced into each well of a 24-well plate in amounts of 1 ml, several scales were introduced to each well (8 scales in general), and 10^−4, 10^−6, and 10^−8 M indole derivatives were applied to separate wells. Subsequently, the scales were cultured at 15° C. for 6 hours. Also, a group to which no indole derivative had been added was prepared (a control group), and influences thereof on osteoclasts and osteoblasts were compared. Two control groups, i.e., a group for inspecting osteoclasts and a group for inspecting osteoblasts, were provided. Specifically, a total of 8 wells were provided for the control and 10^−4, 10^−6, and 10^−8 M indole derivatives (2 wells for each thereof). Accordingly, 3 types of indole derivatives can be inspected with the use of a 24-well plate. After the culture, medium was removed, 0.05 M cacodylate buffer (pH 7.4) containing 10% formalin was added, and the scales were immobilized. The scales were stored in 0.05 M cacodylate buffer at 4° C. until the measurement of enzyme activity was initiated. • (2) Assay of Influences Imposed on Osteoblasts, i.e., Assay of Alkaline Phosphatase (ALP) Activity The immobilized scales were removed from the plate, and the weights thereof were measured. Thereafter, the scales were introduced into a 96-well microplate, 200 μl of 100 mM tris-HCl buffer (pH 9.5) comprising 10 mM paranitrophenol phosphate (substrate), 1 mM magnesium chloride, and 0.1 mM zinc chloride was introduced into each well, the reaction was allowed to proceed at 25° C. for 1 hour, and an aqueous solution of 2N sodium hydroxide (50 μl) was added thereto in order to terminate the reaction. Thereafter, 150 μl of the solution after the reaction was transferred to the other microplate, and the amount of pNP generated by ALP was measured using a spectrophotometer (405 nm) to determine the activity.

The subject of series [3] is osteoblasts. As to conditions: reported in N. Suzuki and A. Hattori, J. Pineal Res., 33, 253-258, 2002; cited from earlier work.
Series [4] relates to osteoclasts. As to conditions: reported in N. Suzuki and A. Hattori, J. Pineal Res., 33, 253-258, 2002; cited from earlier work.

Usually melting point stands for the temperature of the solid-liquid transition. Molecule `C=CCn1c(Br)c(CCNC(C)=O)c2c(Br)c(OC)c(Br)cc21` [1-Allyl-2,4,6-tribromomelatonin, N-acetyl-1-allyl-2,4,6-tribromo-5-methoxyindole-3-ethanamine] displayed a melting point of 142 to 143 °C. Besides, in the series on osteoclasts [1] (indole derivative 10^−4 M), the “TRAP activity, amount of paranitrophenol produced” value (shortened to “TRAP activity, amount”) was 2.87 ± 0.10 nmol/mg of scales/hr. Moreover, the “TRAP activity, amount” value in the series with osteoclasts [1] (indole derivative 10^−6 M) is recorded as 2.89 ± 0.12 nmol/mg of scales/hr. In the series with osteoclasts [1] (indole derivative 10^−8 M), the “TRAP activity, amount” value is listed as 2.99 ± 0.13 nmol/mg of scales/hr. For the same molecule, the “ALP activity, amount of paranitrophenol produced” value (shortened to “ALP activity, amount”) with osteoblasts [2] (indole derivative 10^−4 M) was 6.44 ± 0.44 nmol/mg of scales/hr. For the same molecule, the “ALP activity, amount” value with osteoblasts [2] (indole derivative 10^−6 M) is recorded as 6.79 ± 0.63 nmol/mg of scales/hr. Moreover, the “ALP activity, amount” value with osteoblasts [2] (indole derivative 10^−8 M) was 8.30 ± 0.68 nmol/mg of scales/hr.

For the molecule `COc1c(Br)cc2c(c1Br)c(CCNC(C)=O)c(Br)n2Cc1ccccc1` [1-Benzyl-2,4,6-tribromomelatonin, N-acetyl-1-benzyl-2,4,6-tribromo-5-methoxyindole-3-ethanamine], the melting point lay within 218 to 219 °C. Also, the “TRAP activity, amount” value in the series with osteoclasts [1] (indole derivative 10^−4 M) is given as 2.59 ± 0.24 nmol/mg of scales/hr. The “TRAP activity, amount” value in the series with osteoclasts [1] (indole derivative 10^−6 M) was 2.83 ± 0.20 nmol/mg of scales/hr. Moreover, the “TRAP activity, amount” value with osteoclasts [1] (indole derivative 10^−8 M) is recorded as 2.85 ± 0.20 nmol/mg of scales/hr. Also, the “ALP activity, amount” value in the series with osteoblasts [2] (indole derivative 10^−4 M) is reported as 7.77 ± 0.37 nmol/mg of scales/hr. For the same molecule, the “ALP activity, amount” value with osteoblasts [2] (indole derivative 10^−6 M) is 7.92 ± 0.55 nmol/mg of scales/hr. The “ALP activity, amount” value with osteoblasts [2] (indole derivative 10^−8 M) is on record as 8.44 ± 1.00 nmol/mg of scales/hr.

Take `COc1c(Br)c(Br)c2[nH]c(Br)c(CCNC(C)=O)c2c1Br` [2,4,6,7-Tetrabromomelatonin, 2,4,6,7-tetrabromomelatonin]: the “TRAP activity, amount” value is 2.71 ± 0.17 nmol/mg of scales/hr with osteoclasts [1] (indole derivative 10^−4 M), 2.83 ± 0.16 nmol/mg of scales/hr in the series on osteoclasts [1] (indole derivative 10^−6 M) and 3.19 ± 0.14 nmol/mg of scales/hr in the series on osteoclasts [1] (indole derivative 10^−8 M). For the same molecule, the “ALP activity, amount” value in the series on osteoblasts [2] (indole derivative 10^−4 M) is reported as 6.12 ± 0.41 nmol/mg of scales/hr; in the series on osteoblasts [2] (indole derivative 10^−6 M), 6.12 ± 0.50 nmol/mg of scales/hr; with osteoblasts [2] (indole derivative 10^−8 M), 7.90 ± 0.73 nmol/mg of scales/hr.

With `C#CCn1c(Br)c(CCNC(C)=O)c2c(Br)c(OC)c(Br)cc21` [2,4,6-Tribromo-1-propargylmelatonin, N-acetyl-2,4,6-tribromo-5-methoxy-1-propargylindole-3-ethanamine], the “TRAP activity, amount” value in the series with osteoclasts [1] (indole derivative 10^−4 M) is listed as 2.78 ± 0.13 nmol/mg of scales/hr; with osteoclasts [1] (indole derivative 10^−6 M), 2.82 ± 0.15 nmol/mg of scales/hr; in the series on osteoclasts [1] (indole derivative 10^−8 M), 2.78 ± 0.15 nmol/mg of scales/hr. The “ALP activity, amount” value was 7.55 ± 0.76 nmol/mg of scales/hr in the series on osteoblasts [2] (indole derivative 10^−4 M), 8.66 ± 0.47 nmol/mg of scales/hr in the series with osteoblasts [2] (indole derivative 10^−6 M) and 7.07 ± 0.75 nmol/mg of scales/hr with osteoblasts [2] (indole derivative 10^−8 M).

Consider `COc1c(Br)cc2[nH]c(Br)c(CCNC(C)=O)c2c1Br` [2,4,6-Tribromomelatonin, N-acetyl-2,4,6-tribromo-5-methoxyindole-3-ethanamine], for which the “TRAP activity, amount” value in the series with osteoclasts [1] (indole derivative 10^−4 M) is recorded as 2.93 ± 0.18 nmol/mg of scales/hr; in the series with osteoclasts [1] (indole derivative 10^−6 M), 2.87 ± 0.13 nmol/mg of scales/hr; in the series with osteoclasts [1] (indole derivative 10^−8 M), 2.88 ± 0.08 nmol/mg of scales/hr. Moreover, the figures for the “ALP activity, amount” value in the series with osteoblasts [2] (indole derivative 10^−4 M), in the series with osteoblasts [2] (indole derivative 10^−6 M) and with osteoblasts [2] (indole derivative 10^−8 M) were 6.00 ± 0.38 nmol/mg of scales/hr, 6.61 ± 0.38 nmol/mg of scales/hr and 7.58 ± 0.70 nmol/mg of scales/hr, respectively.

Turning to `COc1c(Br)cc2c(c1Br)c(CCNC(C)=O)c(Br)n2S(=O)(=O)c1ccc(C)cc1` [2,4,6-tribromo-1-tosyl-melatonin, N-acetyl-2,4,6-tribromo-5-methoxy 1-tosylindole-3-ethanamine], the melting point was in the range of 215 to 216 °C.

On to `COc1ccc2[nH]c(Br)c(CCNC(C)=O)c2c1` [2-Bromomelatonin], for which the “TRAP activity, amount” value in the series on osteoclasts [1] (indole derivative 10^−4 M) is 2.83 ± 0.23 nmol/mg of scales/hr; in the series on osteoclasts [1] (indole derivative 10^−6 M) it was 2.62 ± 0.17 nmol/mg of scales/hr; in the series on osteoclasts [1] (indole derivative 10^−8 M), 3.02 ± 0.23 nmol/mg of scales/hr. Further, the entries for the “ALP activity, amount” value in the series with osteoblasts [2] (indole derivative 10^−4 M), with osteoblasts [2] (indole derivative 10^−6 M) and with osteoblasts [2] (indole derivative 10^−8 M) were 5.72 ± 0.47 nmol/mg of scales/hr, 6.03 ± 0.66 nmol/mg of scales/hr and 7.41 ± 0.35 nmol/mg of scales/hr, respectively.

On to `COc1ccc2[nH]cc(CCNC(C)=O)c2c1` [Melatonin, N-acetyl-5-methoxytryptamine, reference compound], for which the entries for the “TRAP activity, amount” value in the series with osteoclasts [1] (indole derivative 10^−4 M), in the series with osteoclasts [1] (indole derivative 10^−6 M) and with osteoclasts [1] (indole derivative 10^−8 M) were 2.67 ± 0.11 nmol/mg of scales/hr, 2.69 ± 0.15 nmol/mg of scales/hr and 2.91 ± 0.13 nmol/mg of scales/hr, respectively. For the same molecule, the “Influence on osteoclasts (in words)” value in the series with osteoclasts [1] (summary of FIG. 1A, 1B, Table 1) is “suppressively acts”; in the series with osteoclasts [4], “act suppressively”. Moreover, the “Influence on osteoblasts (in words)” value was “act suppressively” in the series on osteoblasts [3] and “suppressively acts” with osteoblasts [2] (summary of FIG. 2A, 2B, Tables 2A to 2G). For the same molecule, the “ALP activity, amount” value with osteoblasts [2] (indole derivative 10^−4 M) is on record as 5.19 ± 0.36 nmol/mg of scales/hr; in the series on osteoblasts [2] (indole derivative 10^−6 M) it was 5.42 ± 0.25 nmol/mg of scales/hr; in the series on osteoblasts [2] (indole derivative 10^−8 M) it was 5.45 ± 0.27 nmol/mg of scales/hr.
